According to patent US20260078103A1, “ISOQUINOLONES AS PI3K INHIBITORS” (OnKure, Inc., priority 2022, published 2026):
Read-outs that look alike come from different tables or passages of the source.

Assays:
Format in all cases: cell-based
[1] = tested on: T47D cells expressing mutant PI3Ka (H1047R); test: In vitro cell proliferation, T47D cells (CellTiter-Glo); settings: inhibition of proliferation, read-out: Avg T-47D EC50
How it was run: (§1)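 EC50 values derive from a four-parameter logistic fit of luminescence-based (CellTiter-Glo) inhibition, referenced to 0.1% DMSO and 10 uM Alpelisib controls. Compound exposure lasted 72 h at 37 °C.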

[2] = tested on: SKBR3 cells express WT PI3Ka; test: In vitro cell proliferation, SKBR3 cells (CellTiter-Glo); settings: inhibition of proliferation
How it was run: as §1

[3] = tested on: phosphorylation of AKT (pAKT) in T47D cells expressing mutant PI3Ka (H1047R); test: In vitro cell pAKT (Ser473) HTRF, T47D cells; settings: cellular pAKT, T47D cells, mutant PI3Ka (H1047R), 6 hours, read-out: Avg T-47D IC50
How it was run: (§2)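 Cells seeded on plates pre-stamped with 10-point compound dilutions, then grown 6 h at 37 °C (T47D in RPMI/10% FBS/insulin; SKBR3 in McCoy's 5a/10% FBS). Lysates read for pAKT Ser473 by HTRF after overnight antibody incubation. Inhibition normalised to 0.1% DMSO and 10 uM alpelisib; IC50 by four-parameter fit.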

[4] = tested on: phosphorylation of AKT (pAKT) in SKBR3 cells express WT PI3Ka; test: In vitro cell pAKT (Ser473) HTRF, SKBR3 cells; settings: cellular pAKT
How it was run: as §2

SMILES	EC50 ([1]; Homo sapiens, T47D, 72 h) [µM]	EC50 ([2]; Homo sapiens, SK-BR-3, 72 h) [µM]	IC50 ([3]; Homo sapiens, T47D, 6 h) [µM]	IC50 ([4]; Homo sapiens, SK-BR-3, 6 h) [µM]	EC50 ([1]; 72 hours) [µM]	EC50 ([2]; 72 hours) [µM]	IC50 [3] [µM]	IC50 ([4]; 6 hours) [µM]
C[C@@H](Nc1ccccc1C(=O)O)c1cc(F)cc2c(=O)n(C)c(-c3cc(F)c4nn(C(F)F)cc4c3)cc12 [Example 496]	0.5 to 2	> 15	0.001 to 0.5	> 15				
CC(=O)N1CCN(c2cc3c([C@@H](C)Nc4ccccc4C(=O)O)cc(C)cc3c(=O)n2C)CC1 [Example 498]	0.5 to 2	> 15	0.5 to 2	> 15				
Cc1ccc(N2CCN(c3cc4c([C@@H](C)Nc5ccccc5C(=O)O)cc(F)cc4c(=O)n3C)CC2(C)C)cn1 [Example 502]	0.001 to 0.5	2 to 15	0.001 to 0.5	0.5 to 2				
Cc1cc([C@@H](C)Nc2ncccc2C(=O)O)c2cc(N3CCN(CC(F)(F)F)CC3)n(C)c(=O)c2c1 [Example 503]	0.5 to 2	> 15	0.5 to 2	> 15				
Cc1cnc(-c2cc3c([C@@H](C)Nc4ccccc4C(=O)O)cc(F)cc3c(=O)n2C)s1 [Example 504]	0.001 to 0.5	> 15	0.001 to 0.5	> 15				
C[C@@H](Nc1ccccc1C(=O)O)c1cc(F)cc2c(=O)n(C)c(-c3cnc(C(F)(F)F)s3)cc12 [Example 508]	0.5 to 2	> 15	0.5 to 2	> 15				
C[C@@H](Nc1ccccc1C(=O)O)c1cc(F)cc2c(=O)n(C)c(N3CC4CCC(C3)N4CC(F)(F)F)cc12 [Example 511]	0.001 to 0.5	2 to 15	0.001 to 0.5	> 15				
Cc1cc(N2CCN(c3cc4c([C@@H](C)Nc5ccccc5C(=O)O)cc(F)cc4c(=O)n3C)CC2)on1 [Example 512]	0.001 to 0.5	2 to 15	0.001 to 0.5	2 to 15				
COc1ncc(-c2cc3c([C@@H](C)Nc4ccccc4C(=O)O)cc(F)cc3c(=O)n2C)s1 [Example 513]	0.001 to 0.5	> 15	0.001 to 0.5	> 15				
Cc1cc([C@@H](C)Nc2ccccc2C(=O)O)c2cc(-c3cnc(C(C)C)cn3)n(C)c(=O)c2c1 [Example 516]	0.001 to 0.5	> 15	0.001 to 0.5	> 15				
Cc1cc([C@@H](C)Nc2ccccc2C(=O)O)c2cc(-c3cnc(C4CC4)cn3)n(C)c(=O)c2c1 [Example 517]	0.001 to 0.5	> 15	0.001 to 0.5	> 15				
C[C@@H](Nc1ccccc1C(=O)O)c1cc(F)cc2c(=O)n(C)c(-c3cnc(-c4nccs4)c(F)c3)cc12 [Example 518]	0.001 to 0.5	> 15	0.001 to 0.5	> 15				
Cc1ncc(-c2ncc(-c3cc4c([C@@H](C)Nc5ccccc5C(=O)O)cc(F)cc4c(=O)n3C)cc2F)s1 [Example 519]					0.001 to 0.5	> 15	0.001 to 0.5	> 15
CCc1ncc(-c2cc3c([C@@H](C)Nc4ccccc4C(=O)O)cc(F)cc3c(=O)n2C)s1 [Example 524]	0.001 to 0.5	> 15	0.001 to 0.5	> 15				
CCOc1ncc(-c2c(F)c3c([C@@H](C)Nc4ccccc4C(=O)O)cc(C)cc3c(=O)n2C)s1 [Example 536]	0.001 to 0.5	> 15	0.001 to 0.5	> 15				
C#Cc1ccc(N[C@H](C)c2cc(F)cc3c(=O)n(C)c(-c4ccc(OCC(F)(F)F)nc4)cc23)c(C(=O)O)n1 [Example 542]					0.001 to 0.5	2 to 15	0.001 to 0.5	2 to 15
C[C@@H](Nc1ccccc1C(=O)O)c1cc(F)cc2c(=O)n(C)c(-c3cnc(-c4cn(C)nc4F)c(F)c3)cc12 [Example 543]					0.001 to 0.5	> 15	0.001 to 0.5	> 15
C[C@@H](Nc1ccccc1C(=O)O)c1cc(F)cc2c(=O)n(C)c(-c3cnc(CF)s3)cc12 [Example 545]	0.001 to 0.5	> 15	0.001 to 0.5	> 15				
C[C@@H](Nc1ccccc1C(=O)O)c1cc(F)cc2c(=O)n(C)c(-c3ccc(OC4CC(F)(F)C4)nc3)cc12 [Example 546]					0.001 to 0.5	> 15	0.001 to 0.5	> 15
C[C@@H](Nc1ccccc1C(=O)O)c1cc(F)cc2c(=O)n(C)c(-c3ccc(OCC(F)(F)F)nc3)c(F)c12 [Example 547]	0.5 to 2	> 15	0.001 to 0.5	> 15				

Continued, values first:

EC50 ([1]; Homo sapiens, T47D, 72 h) [µM]	EC50 ([2]; Homo sapiens, SK-BR-3, 72 h) [µM]	IC50 ([3]; Homo sapiens, T47D, 6 h) [µM]	IC50 ([4]; Homo sapiens, SK-BR-3, 6 h) [µM]	EC50 ([1]; 72 hours) [µM]	EC50 ([2]; 72 hours) [µM]	IC50 [3] [µM]	IC50 ([4]; 6 hours) [µM]	SMILES
0.001 to 0.5	> 15	0.001 to 0.5	> 15					C[C@@H](Nc1ccccc1C(=O)O)c1cc(F)cc2c(=O)n(C)c(-c3ccc(OC4CC4)nc3)cc12 [Example 497]
0.5 to 2	> 15	0.5 to 2	> 15					Cc1cc([C@@H](C)Nc2ccccc2C(=O)O)c2cc(N3CCN(C=O)CC3)n(C)c(=O)c2c1 [Example 499]
0.001 to 0.5	> 15	0.001 to 0.5	> 15					Cc1ncc(-c2cc3c([C@@H](C)Nc4ccccc4C(=O)O)cc(F)cc3c(=O)n2C)s1 [Example 501]
				0.001 to 0.5	> 15	0.001 to 0.5	> 15	C[C@@H](Nc1ccccc1C(=O)O)c1cc(F)cc2c(=O)n(C)c(-c3cnc(-c4ncc(Cl)cc4F)c(F)c3)cc12 [Example 505]
				0.5 to 2	> 15	0.001 to 0.5	> 15	C[C@@H](Nc1ccccc1C(=O)O)c1cc(F)cc2c(=O)n(C)c(-c3ccc(OC4COC4)nc3)cc12 [Example 507]
0.001 to 0.5	2 to 15	0.001 to 0.5	2 to 15					Cc1cc([C@@H](C)Nc2ccccc2C(=O)O)c2cc(N3CCN(c4cnc(C(F)(F)F)nc4)CC3)n(C)c(=O)c2c1 [Example 509]
0.001 to 0.5	> 15	0.001 to 0.5	> 15					C[C@@H](Nc1ccccc1C(=O)O)c1cc(F)cc2c(=O)n(C)c(N3CCN(CC(F)(F)F)C(C)(C)C3)cc12 [Example 510]
0.001 to 0.5	2 to 15	0.001 to 0.5	> 15					Cc1cnc(-c2ncc(-c3cc4c([C@@H](C)Nc5ccccc5C(=O)O)cc(F)cc4c(=O)n3C)cc2F)cn1 [Example 515]
				0.001 to 0.5	> 15	0.001 to 0.5	> 15	Cc1cc(-c2ncc(-c3cc4c([C@@H](C)Nc5ccccc5C(=O)O)cc(F)cc4c(=O)n3C)cc2F)on1 [Example 520]
				0.001 to 0.5	2 to 15	0.001 to 0.5	> 15	C[C@@H](Nc1ccccc1C(=O)O)c1cc(F)cc2c(=O)n(C)c(C34CC(C(F)(F)F)(C3)C4)cc12 [Example 521]
0.001 to 0.5	> 15	0.001 to 0.5	> 15					Cc1cc([C@@H](C)Nc2ccccc2C(=O)O)c2c(F)c(C3CC3)n(C)c(=O)c2c1 [Example 529]
0.001 to 0.5	> 15	0.001 to 0.5	> 15					C[C@@H](Nc1ccccc1C(=O)O)c1cc(F)cc2c(=O)n(C)c(-c3cnc(C(F)F)s3)cc12 [Example 539]
0.001 to 0.5	> 15	0.001 to 0.5	> 15					C[C@@H](Nc1ccccc1C(=O)O)c1cc(F)cc2c(=O)n(C)c(-c3ccc(COC(F)(F)F)nc3)cc12 [Example 540]
